Assay results published in article PMC9950143 (Scientific Reports, 2023).
Like-named read-outs stand apart in the source and are kept apart here.

Columns and labels:
Zika virus (PRVABC59) = experiment: NanoLuc reporter virus infection assay, Huh-7; type: cell-based; details: Zika virus (PRVABC59) [Huh-7]
Marburg (Drandema) = experiment: microbe, parasite or virus in culture; type: cell-based, Marburg virus
[1] = test system: Dengue 2 virus (New Guinea C); experiment: NanoLuc reporter virus infection assay, Huh-7; type: cell-based; details: Dengue 2 virus (New Guinea C) [Huh-7]
[2] = Cytotoxicity, CellTiter-Glo, 96 h (229E protocol); details: human, H1 HeLa cells
HCV GT1b replicon = experiment: HCV subgenomic replicon Renilla luciferase assay, Huh-7-lunet; type: cell-based, hepatitis C virus; details: Hepatitis C (1b) [Huh-7-lunet]
[3] = Multiplex cytotoxicity (calcein AM) in HCV replicon assay; details: human, Huh-7-lunet HCV genotype 1b replicon cells
West Nile (NY99) = experiment: microbe, parasite or virus in culture; type: cell-based, West Nile virus
HCV 1b replicon = details: Hepatitis C (1b) replicon; read-out: Previously reported activity EC50; cited from earlier work
Bundibugyo virus = experiment: microbe, parasite or virus in culture; type: cell-based
Marburg virus (Ci67) [4] = details: read-out: Previously reported activity EC50; cited from earlier work
[5] = test system: hepatitis B virus (HBV; AD38 strain); experiment: Anti-HBV assay (HBsAg), HepG2-NTCP cells; type: cell-based; details: HepG2 or PHH cells
[6] = test system: Human Coronavirus OC43 (HCoV-OC43); experiment: HCoV-OC43 anti-nucleoprotein ELISA antiviral assay, Huh-7 cells; type: cell-based; details: OC43 [Huh-7]
Dengue 3 virus (H87) = experiment: microbe, parasite or virus in culture; type: cell-based
MARV Ci67 [7] = type: cell-based, Marburg virus
[8] = test system: all MARV and Ravn virus (RAVV) isolates tested; experiment: microbe, parasite or virus in culture; type: cell-based, Marburg virus; details: Filoviridae, HeLa, read-out: EC50 values against all MARV and RAVV isolates tested
Enterovirus 68D [9] = details: listed as Enterovirus 68D; different cells and/or assay protocols; read-out: Previously reported activity EC50; cited from earlier work
SUDV Boniface = type: cell-based, Sudan virus; details: read-out: RDV EC50
OC43 = details: different cells and/or assay protocols, read-out: Previously reported activity EC50; cited from earlier work
MARV Ci67 [10] = experiment: organism not typed; type: cell-based, Marburg virus; details: HeLa; n = 9; read-out: RDV activity against MARV EC50
[11] = Compound cytotoxicity by MTS dye reduction; details: dog, MDCK cells
MDCK cells = experiment: Compound cytotoxicity by MTS dye reduction; details: MDCK; listed as Influenza B (B/Brisbane/60/2008)
[12] = test system: rhinoviruses of serotypes A and B; experiment: CPE assay, H1 HeLa cells (summary over rhinoviruses); type: cell-based; details: Enterovirus, read-out: EC50 range against rhinoviruses of serotypes A and B
Marburg (Nganda) = experiment: microbe, parasite or virus in culture; type: cell-based, Marburg virus
Enterovirus 68D [13] = experiment: CPE assay, RD cells; type: cell-based; details: Enterovirus 68D [RD]
Ravn Virus = experiment: microbe, parasite or virus in culture; type: cell-based
Zika virus (MR766) = experiment: microbe, parasite or virus in culture; type: cell-based
[14] = test system: Japanese encephalitis (14–14-2); experiment: microbe, parasite or virus in culture; type: cell-based; details: Japanese encephalitis (14–14-2) [Huh-7]
[15] = test system: Dengue 1 virus (Djibouti); experiment: microbe, parasite or virus in culture; type: cell-based
Marburg virus (Ci67) [16] = experiment: microbe, parasite or virus in culture; type: cell-based
Dengue 2 virus (RL) = experiment: microbe, parasite or virus in culture; type: cell-based
Marburg (Kabale) = experiment: microbe, parasite or virus in culture; type: cell-based, Marburg virus
Marburg (Angola) = experiment: microbe, parasite or virus in culture; type: cell-based, Marburg virus
all SUDV isolates tested = experiment: microbe, parasite or virus in culture; type: cell-based; details: Sudan ebolavirus, HeLa, read-out: EC50 values against all SUDV isolates tested
HCV genotype 1b and 2a = experiment: HCV subgenomic replicon assay (summary of both genotypes); type: cell-based; details: Hepatitis C virus; genotype 1b and 2a subgenomic replicon; read-out: EC50 against replicons of both HCV genotypes
Sudan virus (Yambio) = experiment: microbe, parasite or virus in culture; type: cell-based
[17] = n = 1, read-out: Antiviral activity EC50
[18] = Filoviridae, HeLa, read-out: Antiviral activity EC50
[19] = Dengue virus, Huh-7, read-out: Antiviral activity EC50

CCC(CC)COC(=O)[C@H](C)N[P@](=O)(OC[C@H]1O[C@@](C#N)(c2ccc3c(N)ncnn23)[C@H](O)[C@@H]1O)Oc1ccccc1 [RDV, Remdesivir]
Selectivity index (SI) = CC50/EC50 (Zika virus (PRVABC59)): 128
EC50 (Zika virus (PRVABC59); [17]): 260 nM
Selectivity index (SI) = CC50/EC50 (Marburg (Drandema)): > 74
EC50 (Marburg (Drandema); [18]): 34 ± 4 nM
Selectivity index (SI) = CC50/EC50 [1]: 145
EC50 [1, 17]: 230 nM
CC50 at 96 h [2]: > 50000 nM
Selectivity index (SI) = CC50/EC50 (HCV GT1b replicon): > 225
EC50 (HCV GT1b replicon; Hepatitis C virus, GT1B, read-out: Antiviral activity EC50): 89 ± 47 nM
CC50 [3]: > 20000 nM
Selectivity index (SI) = CC50/EC50 (West Nile (NY99)): 668
EC50 (West Nile (NY99); West Nile virus, Huh-7, n = 1, read-out: Antiviral activity EC50): 50 nM
EC50 (HCV 1b replicon): 57 nM
Selectivity index (SI) = CC50/EC50 (Bundibugyo virus): > 53
EC50 (Bundibugyo virus; Bundibugyo virus, HeLa, read-out: Antiviral activity EC50): 190 ± 20 nM
EC50 (Marburg virus (Ci67) [4]): 10 to 20 nM
selectivity index of RDV against HBV [5]: ~1
EC50 ([6]; Betacoronavirus 1): 67 ± 5 nM
Selectivity index (SI) = CC50/EC50 [6]: 282
Selectivity index (SI) = CC50/EC50 (Dengue 3 virus (H87)): 196
EC50 (Dengue 3 virus (H87); [19]): 170 ± 70 nM
maximum fold reduction of RDV EC50 in the presence of favipiravir (MARV Ci67 [7]): ≥ tenfold
EC50 [8]: 24 to 68 nM
EC50 (Enterovirus 68D [9]): 100 to 1000 nM
EC50 (SUDV Boniface): 212 nM
EC50 (OC43): 96 to 150 nM
EC50 (MARV Ci67 [10]): 109 nM
CC50 [11]: > 100000 nM
CC50 (MDCK cells): > 100000 nM
EC50 [12]: 385 to 750 nM
Selectivity index (SI) = CC50/EC50 (Marburg (Nganda)): > 104
EC50 (Marburg (Nganda); [18]): 24 ± 4 nM
Selectivity index (SI) = CC50/EC50 (Enterovirus 68D [13]): 56
EC50 (Enterovirus 68D [13]; [17]): 50 nM
Selectivity index (SI) = CC50/EC50 (Ravn Virus): > 37
EC50 (Ravn Virus; [18]): 68 ± 10 nM
Selectivity index (SI) = CC50/EC50 (Zika virus (MR766)): 29
EC50 (Zika virus (MR766); Zika virus, Huh-7, read-out: Antiviral activity EC50): 1150 ± 30 nM
Selectivity index (SI) = CC50/EC50 [14]: 98
EC50 ([14]; Japanese encephalitis virus, n = 1, read-out: Antiviral activity EC50): 340 nM
Selectivity index (SI) = CC50/EC50 [15]: 108
EC50 [15, 19]: 310 ± 90 nM
Selectivity index (SI) = CC50/EC50 (Marburg virus (Ci67) [16]): > 83
EC50 (Marburg virus (Ci67) [16]; [18]): 30 ± 2 nM
Selectivity index (SI) = CC50/EC50 (Dengue 2 virus (RL)): 115
EC50 (Dengue 2 virus (RL); [19]): 290 ± 70 nM
Selectivity index (SI) = CC50/EC50 (Marburg (Kabale)): > 63
EC50 (Marburg (Kabale); [18]): 40 ± 2 nM
Selectivity index (SI) = CC50/EC50 (Marburg (Angola)): > 56
EC50 (Marburg (Angola); [18]): 45 ± 30 nM
EC50 (all SUDV isolates tested): 120 to 240 nM
EC50 (HCV genotype 1b and 2a): 72 to 89 nM
Selectivity index (SI) = CC50/EC50 (Sudan virus (Yambio)): > 19
EC50 (Sudan virus (Yambio); Sudan ebolavirus, HeLa, n = 1, read-out: Antiviral activity EC50): 130 nM
